Experimental data reported in patent US20020076728A1, “Engineering affinity ligands for macromolecules” (priority 1997, published 2002).
Values joined by “and” are separate entries in the source; they are usually repeats but may differ in a detail not shown here. Equal entries are not always repeated. Blank lines part the entries; values can stand above or below the molecule they belong to. Ends that are not written are not given here.

Tests used:
tPA = tPA (Homo sapiens, UniProt P00750); experiment: 15-amino acid segment of #109 bound to chromatographic support, tPA binding; settings: bound to a chromatographic support; initial studies
Chain of tPA (P00750 36-562): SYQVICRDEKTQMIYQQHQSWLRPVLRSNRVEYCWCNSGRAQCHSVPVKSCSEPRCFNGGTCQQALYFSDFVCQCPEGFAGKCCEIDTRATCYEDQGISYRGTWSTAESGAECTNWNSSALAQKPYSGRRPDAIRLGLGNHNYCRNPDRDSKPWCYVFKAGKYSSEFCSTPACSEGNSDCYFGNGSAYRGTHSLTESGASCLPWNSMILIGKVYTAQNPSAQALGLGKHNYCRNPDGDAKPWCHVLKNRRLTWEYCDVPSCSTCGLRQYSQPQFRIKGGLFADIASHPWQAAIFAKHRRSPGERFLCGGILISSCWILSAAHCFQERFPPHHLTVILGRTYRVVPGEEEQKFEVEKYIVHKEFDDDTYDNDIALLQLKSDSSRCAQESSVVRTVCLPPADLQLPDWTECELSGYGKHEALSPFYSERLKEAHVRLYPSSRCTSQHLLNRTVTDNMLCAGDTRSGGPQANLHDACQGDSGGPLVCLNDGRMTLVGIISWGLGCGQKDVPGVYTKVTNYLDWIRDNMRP
Source text: As noted above, almost all of the variegation in amino acid positions used in building the CMTI library occurred between two cyteines at positions 3 and 10 of CMTI-I (see Table 3). In the parental CMTI protein, these cysteines form disulfide bonds with other cysteine residues elsewhere in the protein (see SEQ ID NO: 1), however with the successful isolation of affinity ligands from the CMTI library, a secondary library was conceptualized which was based on variegating a truncated 15-amino acid segment of the isolate #109 (see amino acids 1-15 of SEQ ID NO: 12). If the C3 and C10 cysteines of these members formed a disulfide bond, then a constrained loop having tPA binding properties might be obtained.

M13 phage = experiment: Stability of M13 in various organic solvents (phage survival); settings: for surviving phage: incubation for 20 minutes with 80% solvent
Source text: Thus, if phage display libraries are used, it is of interest to determine whether organic solvents disrupt the phage.

[1] = side-chain ionizable group of the amino acid type in proteins; cited from earlier work
[2] = target: T1, recombinant human tissue-type plasminogen activator (human, UniProt P00750 36-562); experiment: peptide bound to a chromatographic support
T1 construct: Bought; immobilised on Reacti-Gel agarose beads for phage work, in solution for column tests; also called tPA
T1 sequence (P00750 36-562 limits assumed): as the sequence (P00750 36-562) above

[3] = 10% solvent by volume in Luria broth
[4] = 20% solvent by volume in Luria broth
[5] = 40% solvent by volume in Luria broth
[6] = 80% solvent by volume in Luria broth
[7] = 2% solvent by volume in Luria broth
[8] = 5% solvent by volume in Luria broth

Molecule: 15-amino acid segment derived from affinity ligand isolate #109: truncated 15-amino acid segment of isolate #109 (amino acids 1-15 of SEQ ID NO: 12), C3-C10 disulfide loop (RLCPKTDLGCMKDSD; also: C3-C10 disulfide stated only as a possibility)
binding of immobilized loop to tPA (tPA): bound to tPA

Molecule: CC#N [ACN, acetonitrile]
Survival after 20 min. (%) (M13 phage; [3]): 84%
Survival after 60 min. (%) (M13 phage; [3]): 74%
Survival after 20 min. (%) (M13 phage; [4]): 80%
Survival after 60 min. (%) (M13 phage; [4]): 91%
Survival after 20 min. (%) (M13 phage; [5]): 92%
Survival after 60 min. (%) (M13 phage; [5]): 89%
Survival after 20 min. (%) (M13 phage; [6]): 30% and 37%
Survival after 60 min. (%) (M13 phage; [6]): 8% and 3%

Molecule: N=C(N)NCCC[C@H](N)C(=O)O [Arg]
pKa range [1]: 12.0

Molecule: N[C@@H](CC(=O)O)C(=O)O [Asp, aspartic acid]
pKa range [1]: 3.9-4.0

Molecule: N[C@@H](CS)C(=O)O [Cys (not in disulfide)]
pKa range [1]: 9.0-9.5

Molecule: CN(C)C=O [DMF, dimethylformamide]
surviving phage (M13 phage): no surviving phage

Molecule: C[S+](C)[O-] [DMSO, dimethylsulfoxide]
Survival after 20 min. (%) (M13 phage; [7]): 84%
Survival after 60 min. (%) (M13 phage; [7]): 89%
Survival after 20 min. (%) (M13 phage; [8]): 68%
Survival after 60 min. (%) (M13 phage; [8]): 86%
Survival after 20 min. (%) (M13 phage; [3]): 96%
Survival after 60 min. (%) (M13 phage; [3]): 86%
Survival after 20 min. (%) (M13 phage; [4]): 73%
Survival after 60 min. (%) (M13 phage; [4]): 82%
Survival after 20 min. (%) (M13 phage; [6]): 1%
Survival after 60 min. (%) (M13 phage; [6]): >1%

Molecule: CCO [EtOH, ethanol]
surviving phage (M13 phage): no surviving phage

Molecule: N[C@@H](CCC(=O)O)C(=O)O [Glu]
pKa range [1]: 4.3-4.5

Molecule: N[C@@H](Cc1c[nH]cn1)C(=O)O [His, Histidine]
pKa range [1]: 6.0-7.0

Molecule: CC(C)O [IPA, isopropyl alcohol]
surviving phage (M13 phage): no surviving phage

Molecule: NCCCC[C@H](N)C(=O)O [Lys]
pKa range [1]: 10.4-11.1

Molecule: CO [MeOH, methanol]
Survival after 20 min. (%) (M13 phage; [3]): 110%
Survival after 60 min. (%) (M13 phage; [3]): 80%
Survival after 20 min. (%) (M13 phage; [4]): 93%
Survival after 60 min. (%) (M13 phage; [4]): 84%
Survival after 20 min. (%) (M13 phage; [5]): 92%
Survival after 60 min. (%) (M13 phage; [5]): 84%

binding result [2]: binds
B1: 15-amino acid segment derived from affinity ligand isolate #109 (peptide)
peptide: RLCPKTDLGCMKDSD
modifications: also: C3-C10 disulfide stated only as a possibility
notes: also called truncated 15-amino acid segment of the isolate #109; C3-C10 loop
